The source of these data is doi:10.1101/2023.12.04.569845, “Identification of 4-(6-((2-methoxyphenyl)amino)pyrazin-2-yl)benzoic acids as CSNK2A inhibitors with antiviral activity and improved selectivity over PIM3” (bioRxiv, 2023).

Where two headings read alike, the source gives them in different places.

What all share (assay): biochemical
Design in all cases: Thermal shift (DSF, SYPRO Orange) Tm shift of recombinant kinase domains at 10 uM compound

Assay [1] deals with T1, DCAMKL1 (Homo sapiens, UniProt O15075).
T1 construct: gene DCLK1
T1 sequence (O15075 1-740): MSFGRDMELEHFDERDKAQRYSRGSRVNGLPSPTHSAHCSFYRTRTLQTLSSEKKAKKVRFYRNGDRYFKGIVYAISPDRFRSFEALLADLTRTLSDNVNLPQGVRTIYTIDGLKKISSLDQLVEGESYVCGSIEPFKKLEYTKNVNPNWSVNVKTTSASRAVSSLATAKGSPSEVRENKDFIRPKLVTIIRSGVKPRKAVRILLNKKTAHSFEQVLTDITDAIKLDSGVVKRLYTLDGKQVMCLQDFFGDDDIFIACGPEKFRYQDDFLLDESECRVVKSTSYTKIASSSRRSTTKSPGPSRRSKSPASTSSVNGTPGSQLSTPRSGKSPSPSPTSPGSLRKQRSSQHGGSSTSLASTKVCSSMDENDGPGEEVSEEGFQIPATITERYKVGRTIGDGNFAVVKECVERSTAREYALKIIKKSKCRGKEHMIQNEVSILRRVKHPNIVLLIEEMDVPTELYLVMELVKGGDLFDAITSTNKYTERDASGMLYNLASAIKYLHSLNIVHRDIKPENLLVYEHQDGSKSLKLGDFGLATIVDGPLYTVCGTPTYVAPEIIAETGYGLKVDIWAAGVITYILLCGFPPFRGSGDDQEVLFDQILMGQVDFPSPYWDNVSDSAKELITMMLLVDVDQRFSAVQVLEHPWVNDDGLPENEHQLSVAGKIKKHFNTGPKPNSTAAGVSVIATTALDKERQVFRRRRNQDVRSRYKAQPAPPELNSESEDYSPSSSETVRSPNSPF
Method: (§1) S23 Thermal stability kinase selectivity. The assay was performed as previously described. 9,10 Briefly, recombinant protein kinase domains at a concentration of 2 μM were mixed with 10 μM compound in a buffer containing 20 mM HEPES, pH 7.5, and 500 mM NaCl. SYPRO Orange (5000×, Invitrogen) was added as a fluorescence probe (1 µl per mL). Subsequently, temperature-dependent protein unfolding profiles were measured using the QuantStudio™ 5 realtime PCR machine (Thermo Fisher). […] The temperature was raised with a step rate of 3°C per minute. Data points were analysed with the internal software (Thermal Shift SoftwareTM Version 1.4, Thermo Fisher) using the Boltzmann equation to determine the inflection point of the transition curve.

The target in assay [2] is FGFR1 (Homo sapiens, UniProt P11362).
Method: as §1
The target of assay [3] is T2, Haspin (Homo sapiens, UniProt Q8TF76).
T2 sequence (Q8TF76 1-798): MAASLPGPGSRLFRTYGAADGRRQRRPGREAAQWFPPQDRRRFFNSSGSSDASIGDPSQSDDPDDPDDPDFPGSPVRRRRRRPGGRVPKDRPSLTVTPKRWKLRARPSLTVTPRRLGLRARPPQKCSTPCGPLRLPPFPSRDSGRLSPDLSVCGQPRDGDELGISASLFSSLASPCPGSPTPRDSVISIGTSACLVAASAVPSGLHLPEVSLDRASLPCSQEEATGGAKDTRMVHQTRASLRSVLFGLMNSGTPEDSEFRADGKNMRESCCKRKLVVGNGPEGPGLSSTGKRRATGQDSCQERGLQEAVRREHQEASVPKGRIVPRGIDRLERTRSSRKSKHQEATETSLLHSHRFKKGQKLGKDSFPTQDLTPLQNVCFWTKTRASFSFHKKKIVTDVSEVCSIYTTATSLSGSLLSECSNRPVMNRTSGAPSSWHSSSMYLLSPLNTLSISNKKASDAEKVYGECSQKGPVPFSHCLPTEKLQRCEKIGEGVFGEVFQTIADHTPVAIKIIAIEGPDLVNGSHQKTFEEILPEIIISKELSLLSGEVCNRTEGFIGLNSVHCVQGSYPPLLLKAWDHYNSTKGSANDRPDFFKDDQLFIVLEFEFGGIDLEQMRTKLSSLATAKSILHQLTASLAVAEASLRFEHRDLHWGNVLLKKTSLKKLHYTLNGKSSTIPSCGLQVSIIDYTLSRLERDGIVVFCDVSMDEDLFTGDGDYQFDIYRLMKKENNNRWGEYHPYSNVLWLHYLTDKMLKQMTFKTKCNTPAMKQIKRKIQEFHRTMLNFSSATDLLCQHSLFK
Method: as §1

The target in assay [4] is MARK3 (Homo sapiens, UniProt P27448).
Method: as §1
Assay [5] has as its target SRC (Homo sapiens, UniProt P12931).
Method: as §1
Assay [6] has as its target CDKL1 (Homo sapiens, UniProt Q00532).
Method: as §1
Assay [7] deals with T3, MYT1 (Homo sapiens, UniProt Q99640).
T3 construct: gene PKMYT1
T3 sequence (Q99640 1-499): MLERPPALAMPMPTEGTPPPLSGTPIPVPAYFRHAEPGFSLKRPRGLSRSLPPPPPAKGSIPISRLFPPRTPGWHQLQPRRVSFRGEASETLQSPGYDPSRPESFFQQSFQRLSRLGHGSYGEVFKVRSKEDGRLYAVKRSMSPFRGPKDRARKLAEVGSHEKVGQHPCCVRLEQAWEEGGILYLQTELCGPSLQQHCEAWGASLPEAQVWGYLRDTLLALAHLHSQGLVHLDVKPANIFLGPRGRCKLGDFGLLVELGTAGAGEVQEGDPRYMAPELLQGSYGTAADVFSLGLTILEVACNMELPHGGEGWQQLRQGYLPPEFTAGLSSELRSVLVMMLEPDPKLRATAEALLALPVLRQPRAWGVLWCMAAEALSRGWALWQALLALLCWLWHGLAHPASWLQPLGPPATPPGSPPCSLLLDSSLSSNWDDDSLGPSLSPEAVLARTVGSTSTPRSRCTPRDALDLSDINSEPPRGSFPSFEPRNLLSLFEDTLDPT
Method: as §1

For assay [8], the target named is DAPK1 (Homo sapiens, UniProt P53355).
Method: as §1
Assay [9] concerns the target CAMK2B (Homo sapiens, UniProt Q13554).
Method: as §1

Chain of SRC (P12931 whole entry): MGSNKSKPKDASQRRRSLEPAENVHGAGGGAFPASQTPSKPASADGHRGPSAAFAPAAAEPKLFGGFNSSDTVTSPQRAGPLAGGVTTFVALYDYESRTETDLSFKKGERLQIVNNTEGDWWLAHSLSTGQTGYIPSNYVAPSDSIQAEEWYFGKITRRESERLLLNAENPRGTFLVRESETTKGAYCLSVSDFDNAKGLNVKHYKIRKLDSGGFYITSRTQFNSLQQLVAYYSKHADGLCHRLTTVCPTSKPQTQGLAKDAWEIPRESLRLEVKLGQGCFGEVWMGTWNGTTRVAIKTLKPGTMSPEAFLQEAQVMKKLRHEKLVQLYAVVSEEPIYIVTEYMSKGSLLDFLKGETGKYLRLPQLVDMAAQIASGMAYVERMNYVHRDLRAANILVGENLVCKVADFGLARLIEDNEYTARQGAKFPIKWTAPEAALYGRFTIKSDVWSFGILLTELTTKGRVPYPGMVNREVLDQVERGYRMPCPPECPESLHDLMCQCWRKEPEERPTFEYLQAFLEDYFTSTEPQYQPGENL
Chain of CDKL1 (Q00532 whole entry): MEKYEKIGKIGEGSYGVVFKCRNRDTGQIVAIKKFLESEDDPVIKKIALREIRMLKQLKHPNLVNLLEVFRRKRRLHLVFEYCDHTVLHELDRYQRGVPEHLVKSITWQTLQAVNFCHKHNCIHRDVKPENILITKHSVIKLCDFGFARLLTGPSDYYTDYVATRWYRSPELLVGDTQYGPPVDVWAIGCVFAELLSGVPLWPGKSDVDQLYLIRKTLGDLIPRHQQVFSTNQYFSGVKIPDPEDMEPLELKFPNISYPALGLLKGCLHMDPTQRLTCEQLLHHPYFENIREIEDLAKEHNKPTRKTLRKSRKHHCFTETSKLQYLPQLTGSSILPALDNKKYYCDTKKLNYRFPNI
Chain of CAMK2B (Q13554 whole entry): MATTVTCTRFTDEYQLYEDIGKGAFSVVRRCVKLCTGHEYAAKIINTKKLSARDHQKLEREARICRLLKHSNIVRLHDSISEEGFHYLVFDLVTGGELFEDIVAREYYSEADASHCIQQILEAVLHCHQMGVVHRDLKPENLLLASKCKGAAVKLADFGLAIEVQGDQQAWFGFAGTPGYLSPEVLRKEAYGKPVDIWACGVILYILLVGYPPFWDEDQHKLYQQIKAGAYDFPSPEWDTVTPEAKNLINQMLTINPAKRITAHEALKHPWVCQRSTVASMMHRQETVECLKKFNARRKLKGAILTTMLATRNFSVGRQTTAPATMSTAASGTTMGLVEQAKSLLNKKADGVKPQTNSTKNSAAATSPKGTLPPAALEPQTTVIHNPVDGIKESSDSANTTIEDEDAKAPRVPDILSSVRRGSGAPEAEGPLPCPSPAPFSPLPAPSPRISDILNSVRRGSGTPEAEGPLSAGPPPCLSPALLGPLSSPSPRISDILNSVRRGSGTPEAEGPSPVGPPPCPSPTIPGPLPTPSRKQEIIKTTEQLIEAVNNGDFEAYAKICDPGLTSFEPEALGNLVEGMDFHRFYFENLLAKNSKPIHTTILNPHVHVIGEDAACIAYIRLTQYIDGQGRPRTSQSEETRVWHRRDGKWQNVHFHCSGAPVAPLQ
Chain of FGFR1 (P11362 whole entry): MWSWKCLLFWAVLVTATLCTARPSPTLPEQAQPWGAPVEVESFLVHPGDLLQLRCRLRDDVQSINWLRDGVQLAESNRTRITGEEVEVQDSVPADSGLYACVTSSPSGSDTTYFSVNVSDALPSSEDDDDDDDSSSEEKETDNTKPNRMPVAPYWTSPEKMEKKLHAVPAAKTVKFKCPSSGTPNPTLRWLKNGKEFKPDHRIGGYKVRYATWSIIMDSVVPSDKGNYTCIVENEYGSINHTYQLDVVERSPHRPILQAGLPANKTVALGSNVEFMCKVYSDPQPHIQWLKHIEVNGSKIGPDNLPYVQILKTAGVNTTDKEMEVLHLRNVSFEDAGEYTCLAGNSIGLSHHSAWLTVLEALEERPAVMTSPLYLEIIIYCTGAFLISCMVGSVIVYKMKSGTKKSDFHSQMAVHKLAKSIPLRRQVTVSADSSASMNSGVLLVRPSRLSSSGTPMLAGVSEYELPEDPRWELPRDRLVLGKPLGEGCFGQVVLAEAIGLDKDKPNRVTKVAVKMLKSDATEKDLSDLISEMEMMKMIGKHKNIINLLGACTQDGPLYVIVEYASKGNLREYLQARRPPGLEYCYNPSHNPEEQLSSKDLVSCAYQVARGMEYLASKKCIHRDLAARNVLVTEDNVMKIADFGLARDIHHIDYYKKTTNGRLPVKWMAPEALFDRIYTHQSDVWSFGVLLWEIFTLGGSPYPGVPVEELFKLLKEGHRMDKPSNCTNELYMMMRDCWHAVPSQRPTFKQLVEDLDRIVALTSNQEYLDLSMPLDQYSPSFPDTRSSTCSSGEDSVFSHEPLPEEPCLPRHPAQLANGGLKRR
Chain of DAPK1 (P53355 whole entry): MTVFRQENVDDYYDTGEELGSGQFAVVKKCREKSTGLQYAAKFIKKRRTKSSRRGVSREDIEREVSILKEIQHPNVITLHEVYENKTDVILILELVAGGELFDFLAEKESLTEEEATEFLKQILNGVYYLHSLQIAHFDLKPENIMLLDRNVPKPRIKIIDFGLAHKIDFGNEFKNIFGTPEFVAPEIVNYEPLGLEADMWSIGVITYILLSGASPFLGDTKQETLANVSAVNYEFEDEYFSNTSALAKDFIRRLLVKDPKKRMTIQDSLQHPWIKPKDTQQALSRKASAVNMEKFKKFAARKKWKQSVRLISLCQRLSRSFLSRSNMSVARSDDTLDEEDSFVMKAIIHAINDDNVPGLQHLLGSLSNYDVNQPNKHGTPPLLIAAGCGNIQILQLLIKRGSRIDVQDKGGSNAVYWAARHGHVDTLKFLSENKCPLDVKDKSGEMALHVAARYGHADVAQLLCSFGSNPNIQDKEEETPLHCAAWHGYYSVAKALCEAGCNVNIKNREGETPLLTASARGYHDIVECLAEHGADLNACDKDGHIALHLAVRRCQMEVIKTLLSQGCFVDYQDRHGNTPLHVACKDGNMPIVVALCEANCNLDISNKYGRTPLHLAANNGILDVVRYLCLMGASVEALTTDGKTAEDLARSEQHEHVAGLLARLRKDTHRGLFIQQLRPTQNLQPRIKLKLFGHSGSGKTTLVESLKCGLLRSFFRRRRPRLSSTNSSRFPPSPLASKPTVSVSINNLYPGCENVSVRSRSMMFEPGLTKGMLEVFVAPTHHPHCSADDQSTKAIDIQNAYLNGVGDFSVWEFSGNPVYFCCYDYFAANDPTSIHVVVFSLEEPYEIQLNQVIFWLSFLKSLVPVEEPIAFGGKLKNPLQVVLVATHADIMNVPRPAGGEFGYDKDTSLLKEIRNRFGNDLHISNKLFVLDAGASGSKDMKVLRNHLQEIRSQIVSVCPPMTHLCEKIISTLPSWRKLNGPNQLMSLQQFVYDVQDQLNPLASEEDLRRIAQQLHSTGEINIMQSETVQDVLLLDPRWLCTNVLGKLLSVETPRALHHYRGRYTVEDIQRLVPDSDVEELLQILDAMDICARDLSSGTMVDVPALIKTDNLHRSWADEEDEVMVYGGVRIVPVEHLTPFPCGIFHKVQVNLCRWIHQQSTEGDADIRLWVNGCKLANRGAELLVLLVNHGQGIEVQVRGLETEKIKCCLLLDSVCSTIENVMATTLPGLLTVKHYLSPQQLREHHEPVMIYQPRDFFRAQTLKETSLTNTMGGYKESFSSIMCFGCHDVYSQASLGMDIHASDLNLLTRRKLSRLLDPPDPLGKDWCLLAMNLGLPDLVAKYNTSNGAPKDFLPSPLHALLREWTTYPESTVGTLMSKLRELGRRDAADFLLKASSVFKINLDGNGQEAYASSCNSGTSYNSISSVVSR
Chain of MARK3 (P27448 whole entry): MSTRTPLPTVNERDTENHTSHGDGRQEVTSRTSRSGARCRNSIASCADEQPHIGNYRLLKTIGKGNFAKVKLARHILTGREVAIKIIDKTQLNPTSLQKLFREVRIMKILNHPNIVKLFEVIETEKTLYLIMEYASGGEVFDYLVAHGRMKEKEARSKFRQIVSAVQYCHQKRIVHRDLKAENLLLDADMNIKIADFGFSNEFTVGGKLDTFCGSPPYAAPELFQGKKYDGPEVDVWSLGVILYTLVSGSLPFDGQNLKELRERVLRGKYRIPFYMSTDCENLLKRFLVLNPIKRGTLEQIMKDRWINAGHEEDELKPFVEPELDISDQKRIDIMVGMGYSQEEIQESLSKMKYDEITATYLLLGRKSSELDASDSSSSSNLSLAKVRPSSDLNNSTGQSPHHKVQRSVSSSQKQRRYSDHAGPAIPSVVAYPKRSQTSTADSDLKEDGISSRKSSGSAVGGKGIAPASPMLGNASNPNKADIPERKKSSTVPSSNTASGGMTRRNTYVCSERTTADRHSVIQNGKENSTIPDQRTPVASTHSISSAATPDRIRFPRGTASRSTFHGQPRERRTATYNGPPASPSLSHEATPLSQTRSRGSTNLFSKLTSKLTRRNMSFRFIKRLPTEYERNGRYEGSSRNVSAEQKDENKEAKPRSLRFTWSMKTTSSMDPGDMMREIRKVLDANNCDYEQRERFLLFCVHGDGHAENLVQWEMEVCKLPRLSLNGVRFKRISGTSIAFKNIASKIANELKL

For `CC(C)Oc1ccc2ccn(-c3cncc(-c4ccc(C(=O)O)cc4)n3)c2c1` [6c], the ΔTm at 10 µM in assay [1] (read-out: 6c) is 3 °C; in [2] (read-out: 6c) it was 0 °C; in [3] (read-out: 6c) it was 0 °C; in assay [4] (read-out: 6c), -1 °C; in [5] (read-out: 6c), 3 °C; in assay [6] (read-out: 6c) it was 3 °C. Besides, the ΔTm at 10 µM in [7] (read-out: 6c) stood at 0 °C; in [8] (read-out: 6c), 7 °C; in [9] (read-out: 6c), 2 °C.

For the compound `COc1ccc(OC(C)C)cc1Nc1cncc(-c2ccc(C(=O)O)cc2)n1` [7c], the ΔTm at 10 µM is 3 °C in [1] (read-out: 7c); 0 °C in assay [2] (read-out: 7c); 5 °C in [3] (read-out: 7c); -1 °C in [4] (read-out: 7c); 3 °C in [5] (read-out: 7c); 1 °C in assay [6] (read-out: 7c). The ΔTm at 10 µM came out at 0 °C in assay [7] (read-out: 7c), 6 °C in assay [8] (read-out: 7c) and 1 °C in assay [9] (read-out: 7c).

Turning to `CC(C)Nc1ccc2cnn(-c3cncc(-c4ccc(C(=O)O)cc4)n3)c2c1` [compound 2, 2], the ΔTm at 10 µM worked out at 4 °C in [1] (read-out: 2); 1 °C in [2] (read-out: 2); 3 °C in assay [3] (read-out: 2); 0 °C in [4] (read-out: 2); 3 °C in assay [5] (read-out: 2); 2 °C in [6] (read-out: 2). Further, the ΔTm at 10 µM in assay [7] (read-out: 2) is 0 °C; in assay [8] (read-out: 2), 9 °C; in [9] (read-out: 2), 2 °C.
